Measured values reported in patent publication US11254663B2 (BRISTOL-MYERS SQUIBB COMPANY, priority 2019, dated 2022).

What follows are molecules tested against FXR (Homo sapiens (Human), UniProt Q96RI1) (assay: transient human FXR/Gal4-luciferase reporter assay). Conditions: Gal4-hFXR fusion construct, HEK293 reporter cells; response relative to 8 μM GW-4064.
Format: cell-based
In short: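 Compound exposure ran overnight at 37 °C and activity was measured as luminescence with Steady-Glo reagent. The cells were a HEK293 line stably expressing firefly luciferase under five Gal4 response elements. They were transiently transfected, one night beforehand, with a plasmid encoding Gal4 DNA-binding domain fused to the human FXR ligand-binding domain.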

Sequence of FXR (Q96RI1 262-486): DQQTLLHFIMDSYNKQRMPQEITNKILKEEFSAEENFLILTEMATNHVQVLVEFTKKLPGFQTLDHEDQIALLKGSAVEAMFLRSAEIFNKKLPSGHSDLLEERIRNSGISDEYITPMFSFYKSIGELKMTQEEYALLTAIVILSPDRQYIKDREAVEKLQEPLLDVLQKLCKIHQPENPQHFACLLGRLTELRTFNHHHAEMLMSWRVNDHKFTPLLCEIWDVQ

Going from `CC(C)(C)c1noc(C23CCC(CN(C(=O)C45CC(F)(C4)C5)c4cccc(-c5ccc(OC(F)F)cc5)c4)(CC2)CC3)n1` [Example 368, N-((4-(3-(tert-butyl)-1,2,4-oxadiazol-5-yl)bicyclo[2.2.2]octan-1-yl)methyl)-N-(4′-(difluoromethoxy)-[1,1′-biphenyl]-3-yl)-3-fluorobicyclo[1.1.1]pentane-1-carboxamide] to `CC(C)c1noc(C23CCC(CN(C(=O)C45CC(F)(C4)C5)c4cccc(-c5ccc(OC(F)F)cc5)c4)(CC2)CC3)n1` [Example 387, N-(4′-(difluoromethoxy)-[1,1′-biphenyl]-3-yl)-3-fluoro-N-((4-(3-isopropyl-1,2,4-oxadiazol-5-yl)bicyclo[2.2.2]octan-1-yl)methyl)bicyclo[1.1.1]pentane-1-carboxamide], the EC50 falls from 135 nM to 47 nM (2.9-fold). The second is the more potent here.

Compared with `COc1cnc(-c2cccc(N(CC34CCC(c5nc(C(C)(C)C)no5)(CC3)CC4)C(=O)C34CC(F)(C3)C4)c2)nc1` [Example 369, N-((4-(3-(tert-butyl)-1,2,4-oxadiazol-5-yl)bicyclo[2.2.2]octan-1-yl)methyl)-3-fluoro-N-(3-(5-methoxypyrimidin-2-yl)phenyl)bicyclo[1.1.1]pentane-1-carboxamide], `CCOc1cnc(-c2cccc(N(CC34CCC(c5nc(C(C)(C)C)no5)(CC3)CC4)C(=O)C34CC(F)(C3)C4)c2)nc1` [Example 370, N-((4-(3-(tert-butyl)-1,2,4-oxadiazol-5-yl)bicyclo[2.2.2]octan-1-yl)methyl)-N-(3-(5-ethoxypyrimidin-2-yl)phenyl)-3-fluorobicyclo[1.1.1]pentane-1-carboxamide] is 1.8-fold higher in EC50: 68 nM for the first, 121 nM for the second. The first is the more potent here.

Compared with `CC(C)(C)c1noc(C23CCC(CN(C(=O)C45CC(F)(C4)C5)c4cccc(-c5ncc(OC(F)F)cn5)c4)(CC2)CC3)n1` [Example 371, N-((4-(3-(tert-butyl)-1,2,4-oxadiazol-5-yl)bicyclo[2.2.2]octan-1-yl)methyl)-N-(3-(5-(difluoromethoxy)pyrimidin-2-yl)phenyl)-3-fluorobicyclo[1.1.1]pentane-1-carboxamide], `CC(C)(C)c1noc(C23CCC(CN(C(=O)C45CC(F)(C4)C5)c4cccc(-c5ccc(OC(F)F)cn5)c4)(CC2)CC3)n1` [Example 373, N-((4-(3-(tert-butyl)-1,2,4-oxadiazol-5-yl)bicyclo[2.2.2]octan-1-yl)methyl)-N-(3-(5-(difluoromethoxy)pyridin-2-yl)phenyl)-3-fluorobicyclo[1.1.1]pentane-1-carboxamide] is 2-fold higher in EC50: 45 nM for the first, 88 nM for the second. The first is the more potent here.

`CC(C)(C)c1noc(C23CCC(CN(C(=O)C45CC(F)(C4)C5)c4cccc(-c5ccc(NS(=O)(=O)C(F)(F)F)cc5)c4)(CC2)CC3)n1` [Example 372, N-((4-(3-(tert-butyl)-1,2,4-oxadiazol-5-yl)bicyclo[2.2.2]octan-1-yl)methyl)-3-fluoro-N-(4′-((trifluoromethyl)sulfonamido)-[1,1′-biphenyl]-3-yl)bicyclo[1.1.1]pentane-1-carboxamide] and `CC(C)c1noc(C23CCC(CN(C(=O)C45CC(F)(C4)C5)c4cccc(-c5ccc(NS(=O)(=O)C(F)(F)F)cc5)c4)(CC2)CC3)n1` [Example 390, 3-fluoro-N-((4-(3-isopropyl-1,2,4-oxadiazol-5-yl)bicyclo[2.2.2]octan-1-yl)methyl)-N-(4′-((trifluoromethyl)sulfonamido)-[1,1′-biphenyl]-3-yl)bicyclo[1.1.1]pentane-1-carboxamide] are within 1.5-fold of each other in EC50: 131 nM for the first, 96 nM for the second.

`CCOc1ncc(-c2cccc(N(CC34CCC(c5nc(C(C)C)no5)(CC3)CC4)C(=O)C34CC(F)(C3)C4)c2)cn1` [Example 374, N-(3-(2-ethoxypyrimidin-5-yl)phenyl)-3-fluoro-N-((4-(3-isopropyl-1,2,4-oxadiazol-5-yl)bicyclo[2.2.2]octan-1-yl)methyl)bicyclo[1.1.1]pentane-1-carboxamide] and `COc1ncc(-c2cccc(N(CC34CCC(c5nc(C(C)C)no5)(CC3)CC4)C(=O)C34CC(F)(C3)C4)c2)cn1` [Example 383, 3-Fluoro-N-((4-(3-isopropyl-1,2,4-oxadiazol-5-yl)bicyclo[2.2.2]octan-1-yl)methyl)-N-(3-(2-methoxypyrimidin-5-yl)phenyl)bicyclo[1.1.1]pentane-1-carboxamide] are within 1.5-fold of each other in EC50: 44 nM for the first, 47 nM for the second.

`CCOc1ccc(-c2cccc(N(CC34CCC(c5nc(C(C)C)no5)(CC3)CC4)C(=O)C34CC(F)(C3)C4)c2)cc1` [Example 375, N-(4′-ethoxy-[1,1′-biphenyl]-3-yl)-3-fluoro-N-((4-(3-isopropyl-1,2,4-oxadiazol-5-yl)bicyclo[2.2.2]octan-1-yl)methyl)bicyclo[1.1.1]pentane-1-carboxamide] and `COc1ccc(-c2cccc(N(CC34CCC(c5nc(C(C)C)no5)(CC3)CC4)C(=O)C34CC(F)(C3)C4)c2)cc1` [Example 377, 3-fluoro-N-((4-(3-isopropyl-1,2,4-oxadiazol-5-yl)bicyclo[2.2.2]octan-1-yl)methyl)-N-(4′-methoxy-[1,1′-biphenyl]-3-yl)bicyclo[1.1.1]pentane-1-carboxamide] are within 1.5-fold of each other in EC50: 61 nM for the first, 52 nM for the second.

Compared with `CC(C)c1noc(C23CCC(CN(C(=O)C45CC(F)(C4)C5)c4cccc(-c5ccc(NS(C)(=O)=O)cc5)c4)(CC2)CC3)n1` [Example 376, 3-fluoro-N-((4-(3-isopropyl-1,2,4-oxadiazol-5-yl)bicyclo[2.2.2]octan-1-yl)methyl)-N-(4′-(methylsulfonamido)-[1,1′-biphenyl]-3-yl)bicyclo[1.1.1]pentane-1-carboxamide], `CC(C)c1noc(C23CCC(CN(C(=O)C45CC(F)(C4)C5)c4cccc(-c5ccc(NS(=O)(=O)C6CC6)cc5)c4)(CC2)CC3)n1` [Example 379, N-(4′-(cyclopropanesulfonamido)-[1,1′-biphenyl]-3-yl)-3-fluoro-N-((4-(3-isopropyl-1,2,4-oxadiazol-5-yl)bicyclo[2.2.2]octan-1-yl)methyl)bicyclo[1.1.1]pentane-1-carboxamide] is 4.1-fold higher in EC50: 32 nM for the first, 132 nM for the second. The first is the more potent here.

`Cc1nc2ccc(-c3cccc(N(CC45CCC(c6nc(C(C)C)no6)(CC4)CC5)C(=O)C45CC(F)(C4)C5)c3)cc2s1` [Example 378, 3-fluoro-N-((4-(3-isopropyl-1,2,4-oxadiazol-5-yl)bicyclo[2.2.2]octan-1-yl)methyl)-N-(3-(2-methylbenzo[d]thiazol-6-yl)phenyl)bicyclo[1.1.1]pentane-1-carboxamide] and `Cc1nc2ncc(-c3cccc(N(CC45CCC(c6nc(C(C)C)no6)(CC4)CC5)C(=O)C45CC(F)(C4)C5)c3)cc2s1` [Example 389, 3-fluoro-N-((4-(3-isopropyl-1,2,4-oxadiazol-5-yl)bicyclo[2.2.2]octan-1-yl)methyl)-N-(3-(2-methylthiazolo[4,5-b]pyridin-6-yl)phenyl)bicyclo[1.1.1]pentane-1-carboxamide] are within 1.5-fold of each other in EC50: 53 nM for the first, 61 nM for the second.

First: CC(C)c1noc(C23CCC(CN(C(=O)C45CC(F)(C4)C5)c4cccc(-c5ccc(C(F)(F)F)cc5)c4)(CC2)CC3)n1 [Example 380, 3-fluoro-N-((4-(3-isopropyl-1,2,4-oxadiazol-5-yl)bicyclo[2.2.2]octan-1-yl)methyl)-N-(4′-(trifluoromethyl)-[1,1′-biphenyl]-3-yl)bicyclo[1.1.1]pentane-1-carboxamide]
Second: CC(C)c1noc(C23CCC(CN(C(=O)C45CC(F)(C4)C5)c4cccc(-c5ccc(C(F)(F)F)nc5)c4)(CC2)CC3)n1 [Example 388, 3-fluoro-N-((4-(3-isopropyl-1,2,4-oxadiazol-5-yl)bicyclo[2.2.2]octan-1-yl)methyl)-N-(3-(6-(trifluoromethyl)pyridin-3-yl)phenyl)bicyclo[1.1.1]pentane-1-carboxamide]
The EC50 of the first is 3.2-fold lower: 283 nM for the first, 906 nM for the second. The first is the more potent here.

Compared with `CCOc1ccc(-c2cccc(N(CC34CCC(c5nc(C(C)C)no5)(CC3)CC4)C(=O)C34CC(F)(C3)C4)c2)cn1` [Example 381, N-(3-(6-ethoxypyridin-3-yl)phenyl)-3-fluoro-N-((4-(3-isopropyl-1,2,4-oxadiazol-5-yl)bicyclo[2.2.2]octan-1-yl)methyl)bicyclo[1.1.1]pentane-1-carboxamide], `COc1ccc(-c2cccc(N(CC34CCC(c5nc(C(C)C)no5)(CC3)CC4)C(=O)C34CC(F)(C3)C4)c2)cn1` [Example 382, 3-fluoro-N-((4-(3-isopropyl-1,2,4-oxadiazol-5-yl)bicyclo[2.2.2]octan-1-yl)methyl)-N-(3-(6-methoxypyridin-3-yl)phenyl)bicyclo[1.1.1]pentane-1-carboxamide] is 2.5-fold higher in EC50: 40 nM for the first, 98 nM for the second.

Going from `CC(C)c1noc(C23CCC(CN(C(=O)C45CC(F)(C4)C5)c4cccc(-c5cnc(C(F)(F)F)nc5)c4)(CC2)CC3)n1` [Example 384, 3-fluoro-N-((4-(3-isopropyl-1,2,4-oxadiazol-5-yl)bicyclo[2.2.2]octan-1-yl)methyl)-N-(3-(2-(trifluoromethyl)pyrimidin-5-yl)phenyl)bicyclo[1.1.1]pentane-1-carb oxamide] to `CC(C)c1noc(C23CCC(CN(C(=O)C45CC(F)(C4)C5)c4cccc(-c5cnc(C6CC6)nc5)c4)(CC2)CC3)n1` [Example 385, N-(3-(2-cyclopropylpyrimidin-5-yl)phenyl)-3-fluoro-N-((4-(3-isopropyl-1,2,4-oxadiazol-5-yl)bicyclo[2.2.2]octan-1-yl)methyl)bicyclo[1.1.1]pentane-1-carboxamide], the EC50 falls from 184 nM to 35 nM (5.3-fold).

First: CC(C)c1noc(C23CCC(CN(C(=O)C45CC(F)(C4)C5)c4cccc(-c5ccc6c(c5)OC(F)(F)O6)c4)(CC2)CC3)n1 [Example 386, N-(3-(2,2-difluorobenzo[d][1,3]dioxol-5-yl)phenyl)-3-fluoro-N-((4-(3-isopropyl-1,2,4-oxadiazol-5-yl)bicyclo[2.2.2]octan-1-yl)methyl)bicyclo[1.1.1]pentane-1-carboxamide]
Second: COCc1ccc(-c2cccc(N(CC34CCC(c5nc(C(C)C)no5)(CC3)CC4)C(=O)C34CC(F)(C3)C4)c2)cn1 [Example 391, 3-fluoro-N-((4-(3-isopropyl-1,2,4-oxadiazol-5-yl)bicyclo[2.2.2]octan-1-yl)methyl)-N-(3-(6-(methoxymethyl)pyridin-3-yl)phenyl)bicyclo[1.1.1]pentane-1-carboxamide]
The EC50 of the first is 1.9-fold higher: 274 nM for the first, 147 nM for the second.
